The source of these data is the SangsterLogP compilation.

The structures appear in SMILES notation.

Test in the first series: not given
As usually defined, the logP is a log measure of how a compound divides between an organic and an aqueous phase. Low values mean a more hydrophilic compound, high ones a more lipophilic compound. `COc1cc(C(=O)Nc2ccc3nn(C4CCCCC4)nc3c2)cc(OC)c1OC` yielded a logP of 4.45.

Another series in a line: from Caliendo, G., Novellino, E., Santagada, V., Silipo, C., & Vittoria, A. (1991). Structure-activity relationships in a set of antimicrobial. In QSAR, Rational Approaches to the Design of Bioactive ….
Regarding `Cn1nc2ccc(NC(=O)c3ccc([N+](=O)[O-])cc3)cc2n1`, the logP worked out at 2.53.

Consider `Cn1nc2ccc(NC(=O)c3ccccc3)cc2n1`, for which the logP turned out to be 2.44.

For `COc1cc(C(=O)Nc2ccc3nn(C)nc3c2)cc(OC)c1OC`, the logP came to 2.38.

In turn, `O=C(Nc1ccc2nn(C3CCCCC3)nc2c1)c1ccccc1` registered a logP of 4.45.

As to `O=C(Nc1ccc2nn(C3CCCCC3)nc2c1)c1ccc(Cl)c(Cl)c1`, the logP came to 5.85.

Compound `Cn1nc2ccc(NC(=O)CCl)cc2n1` displayed a logP of 1.22.

Turning to `O=C(Nc1ccc2nn(C3CCCCC3)nc2c1)C(Cl)Cl`, the lipophilicity (logP) was 3.87.

Compound `Cn1nc2ccc(NC(=O)c3ccc(Cl)cc3)cc2n1` displayed a logP of 3.13.

For the compound `O=C(Nc1ccc2nn(C3CCCCC3)nc2c1)c1ccc([N+](=O)[O-])cc1`, the logP was 4.57.
